# Assay results taken from patent US11274079B2 (DALIAN INSTITUTE OF CHEMICAL PHYSICS, CHINESE ACADEMY OF …, priority 2018, dated 2022).
# Assays:
# [1] = target: T1, M1 receptor (Homo sapiens, UniProt P11229); assay: DMR assay, antagonism of acetylcholine in CHO-K1 cells stably transfecting the M1 receptor; assay type: cell-based; settings: CHO-K1-M1 cells, DMR, acetylcholine 1 μM, 1 h pretreatment, time point 5 min
# T1 construct: expressed in transfected cells; host or cells: CHO-K1
# T1 sequence (P11229 1-460): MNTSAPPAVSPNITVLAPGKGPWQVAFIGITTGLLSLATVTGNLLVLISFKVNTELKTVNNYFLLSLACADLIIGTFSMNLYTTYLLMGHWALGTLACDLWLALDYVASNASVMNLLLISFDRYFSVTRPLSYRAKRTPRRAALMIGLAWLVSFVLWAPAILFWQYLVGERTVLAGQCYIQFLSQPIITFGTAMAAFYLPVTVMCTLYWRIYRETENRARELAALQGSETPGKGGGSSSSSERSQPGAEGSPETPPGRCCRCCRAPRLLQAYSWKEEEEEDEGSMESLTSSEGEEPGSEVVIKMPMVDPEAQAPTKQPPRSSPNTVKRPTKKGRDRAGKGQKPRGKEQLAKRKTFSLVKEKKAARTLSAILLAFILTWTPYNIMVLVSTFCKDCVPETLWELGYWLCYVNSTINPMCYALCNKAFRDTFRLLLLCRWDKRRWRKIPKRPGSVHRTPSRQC
# Experimental: (§1) The present invention relates to the antagonistic activity of the compound against the muscarinic receptor, which is primarily assessed by a cell-level dynamic mass redistribution (DMR) assay method. All tests are carried out on Epic platform, wherein the target model of the muscarinic receptor M1 is the CHO-K1 ceil model stably transfecting the M1 receptor, the target model of M3 is the HT-29 cell model endogenously highly expressing the M3 receptor, and the selected probe molecule is acetylcholine. Tire probe molecule acetylcholine is dissolved in water, while all other compounds are dissolved in DMSO.
# (§2) The inoculated cell plate is placed in a cell incubator for culture for 12 h until the cell growth and fusion degree reaches about 95%, and the activity assay is carried out. The culture medium is sucked from the cultured ceils, the buffer salt specified by the test is added with a volume of 30 μL per orifice and is stabilized for 1 h. After the baseline is stable, a 2-min baseline is established, and different concentrations of compounds to be tested are added to test the cultured cells for 1 h. After the cells are pretreated with the compounds to be tested for 1 h, the 2-min baseline is re-established, and acetylcholine having a concentration of 1 μM is added to test the cultured cells for 1 h.
# [2] = target: T2, M3 receptor (Homo sapiens, UniProt P20309); assay: DMR assay, antagonism of acetylcholine in HT-29 cells endogenously expressing the M3 receptor; assay type: cell-based; settings: HT-29 cells, DMR, acetylcholine 16 μM, 1 h pretreatment, time point 30 min
# T2 construct: HT-29 cell model endogenously highly expressing the M3 receptor; endogenous in cells; host or cells: HT-29
# Experimental: as §1
# as §2, with “20” for “12”, “cells,” for “ceils,”, “h.” for “h. After the cells are pretreated with the compounds to be tested for 1 h, the 2-min baseline is re-established, and acetylcholine having a concentration of 1 μM is added to test the cultured cells for 1 h.”
# [3] = tested on: isolated tracheal smooth muscle; assay: Carbachol-induced contraction of isolated tracheal strip; settings: Cavia porcellus, read-out: IC50, diastolic effect on isolated tracheal smooth muscle
# Excerpt: 1. Experimental Materials
# 2. Preparation of Tracheal Strip
# The guinea pig is put to death by hammering it on the head, the chest cavity is quickly opened, and trachea is carefully isolated. […] The connective tissue and fat around the trachea are gently removed, and the trachea segment is quickly suspended and cut into tracheal strips with a blade (2-3 mm in width and 20 mm in length). […] The upper end of the tracheal strip is connected to a muscle tension transducer, and the load is adjusted to 1.5 g. The biological signal processing system is used to record the changes in muscular tension of tracheal smooth muscle. The perfusate is replaced once every 15 min, and the experiment is started after the tension is stabilized for 1 h. After each experiment, the smooth muscle is rinsed 3 to 5 times, and the next experiment is carried out after stabilization to the baseline.
# 3. Effects of Compounds Tested on Contraction of Isolated Tracheal Strip in Guinea Pig
# After incubation of isolated tracheal for 1 h, 10 μm/L of carbachol is added to induce the minimum concentration (the concentration obtained from the dose-effect curve of carbachol) of the maximum tracheal smooth muscle contraction, and the changes in tension of the tracheal strip within 5 min are recorded. When the tension of the tracheal smooth muscle reaches the highest point, the compounds tested with a concentration of 1 nm/L are added, and the changes in tension of the tracheal strip within 5 min are recorded. […] Then, the concentration difference is decreased, that is, the concentration is increased by three or four times to repeat the above administration, which makes the tension decrease continuously to the base value (initial load). The changes in tension of the tracheal stop within 5 min are recorded. The dose-effect relationship between the compounds tested and the contractile activity of the isolated tracheal smooth muscle in the guinea pig is obtained. The curve of the changes in tension of the tracheal smooth muscle in each group is recorded and the inhibition rate is calculated. After repeated experiments, IC50 value of each compound tested is calculated by taking points respectively.
# The dose-effect relationship between solvent (DMSO) control group and the contractile activity of the isolated tracheal smooth muscle in the guinea pig is recorded. Inhibition Rate=(Tension before Administration−Tension after Administration)/Tension before Administration
# [4] = tested on: guinea pigs; assay: Acetylcholine chloride/histamine spray-induced asthma, incubation period; assay type: in vivo, guinea pig; settings: 0.2 mM in normal saline sprayed 10 min, challenge after 10 min, recorded as 240 s if no convulsion and fall
# Experimental: On the first day, guinea pigs are placed in a 38×38×38 cm (about 55 L) of home-made container with an atomizing nozzle having a diameter of about 3 cm above the side wall. Ultrasonic atomizer (YUWELL, model 402AI) is used to spray normal saline containing acetylcholine chloride (20 g/L) and histamine (1 g/L) for 15 s. The incubation period of asthma of guinea pigs (also is called asthma incubation period, which is the time from the end of the spray to asthma attack, extreme breathing difficulty until convulsion and fall) is recorded after the cessation of spraying. Animals with an incubation period of less than 120 s are qualified sensitive animals.
# 2. Experimental Processes
# On the second day, the qualified animals are selected for experiments, wherein one group (comprising 4 guinea pigs) is used as the control group, one group (comprising 4 guinea pigs) is experimented with positive medicine […] and one group (comprising 10 guinea pigs) is experimented with the drug to be tested. The animals are placed in a container, and sprayed with normal saline, tiotropium bromide and the compound to be tested. Both tiotropium bromide and the compound to be tested are soluble in normal saline at a concentration of 0.2 mM. After spraying for 10 min, the guinea pigs are taken out and put into another container of the same size. After 10 min, normal saline containing acetylcholine chloride (20 g/L) and histamine (1 g/L) is sprayed into the container for 15 s. The incubation periods of asthma of the guinea pigs are observed and recorded. If there is no convulsion and fall after 240 s, the incubation period is recorded as 240 s.
# T2 sequence (P20309 whole entry): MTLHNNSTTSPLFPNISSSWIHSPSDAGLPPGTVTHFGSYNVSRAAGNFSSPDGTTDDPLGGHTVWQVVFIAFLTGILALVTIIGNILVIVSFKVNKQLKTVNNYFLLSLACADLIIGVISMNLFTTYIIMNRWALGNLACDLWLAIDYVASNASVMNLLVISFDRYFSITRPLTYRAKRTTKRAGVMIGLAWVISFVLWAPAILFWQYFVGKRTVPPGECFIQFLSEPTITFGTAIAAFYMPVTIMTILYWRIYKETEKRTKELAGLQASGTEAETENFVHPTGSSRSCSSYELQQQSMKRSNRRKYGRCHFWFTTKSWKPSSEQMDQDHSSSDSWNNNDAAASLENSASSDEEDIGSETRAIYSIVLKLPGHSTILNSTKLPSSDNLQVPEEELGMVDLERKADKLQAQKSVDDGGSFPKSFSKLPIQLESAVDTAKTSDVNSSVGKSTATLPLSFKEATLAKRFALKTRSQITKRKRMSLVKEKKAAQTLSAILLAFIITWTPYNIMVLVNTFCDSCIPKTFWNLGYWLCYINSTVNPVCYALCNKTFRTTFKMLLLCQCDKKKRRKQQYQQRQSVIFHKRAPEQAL
SMILES,IC50 [1] [nM],IC50 [2] [nM],IC50 [3] [nM],asthma incubation period [4] [s]
"C[N+]1(C)CCCCC1CC(c1ccccc1O)c1ccccc1O (racemic) [I-3-Br, 2-[2,2-bis(2-hydroxy-phenyl)ethyl]-N,N-dimethylpiperidine Bromide]",23.4 ± 6.6,15.4 ± 2.9,4.1,
"C[N+]1(C)CCCCC1CC(c1ccccc1)c1ccccc1O (centres unmarked) [I-2a-Br, 2-[2-(2-hydroxy-phenyl)-phenethyl]-N,N-dimethylpiperidine Bromide]",53.8 ± 4.6,33.8 ± 3.6,6.4,
"C[N+]1(C)[C@@H]2C[C@@H](OC(=O)C(O)(c3cccs3)c3cccs3)C[C@H]1[C@@H]1O[C@@H]12.[Br-] [Tiotropium Bromide, reference compound]",,,33,238.9 ± 5.0
"Cc1ccc(O)c(C(CC2CCCC[N+]2(C)C)c2ccccc2F)c1 (centres unmarked) [I-7, 2-[2-(2-fluorophenyl)-2-(2-hydroxy-5-methyl-phenyl)-ethyl]-N,N-dimethylpiperidine Bromide]",320 ± 20,103 ± 10,33.4,
